Experimental data from publication PMC7063354, “Novel dipeptidyl peptidase‐IV and angiotensin‐I‐converting enzyme inhibitory peptides released from quinoa protein by in silico proteolysis” (Food Science & Nutrition, 2020).
pIC50: −log10 of the molar value. Like-named read-outs stand apart in the source and are kept apart here. Peptide text beside a SMILES is read from it.

Key:
ACE = target: T1, ACE (Homo sapiens, UniProt P12821); assay: ACE inhibition assay (ACE kit-WST); format: biochemical; details: chemically synthesized peptides; mean ± SD of three replicates
T1 construct: purchased ACE kit‐WST
T1 sequence (P12821 30-1306, species assumed): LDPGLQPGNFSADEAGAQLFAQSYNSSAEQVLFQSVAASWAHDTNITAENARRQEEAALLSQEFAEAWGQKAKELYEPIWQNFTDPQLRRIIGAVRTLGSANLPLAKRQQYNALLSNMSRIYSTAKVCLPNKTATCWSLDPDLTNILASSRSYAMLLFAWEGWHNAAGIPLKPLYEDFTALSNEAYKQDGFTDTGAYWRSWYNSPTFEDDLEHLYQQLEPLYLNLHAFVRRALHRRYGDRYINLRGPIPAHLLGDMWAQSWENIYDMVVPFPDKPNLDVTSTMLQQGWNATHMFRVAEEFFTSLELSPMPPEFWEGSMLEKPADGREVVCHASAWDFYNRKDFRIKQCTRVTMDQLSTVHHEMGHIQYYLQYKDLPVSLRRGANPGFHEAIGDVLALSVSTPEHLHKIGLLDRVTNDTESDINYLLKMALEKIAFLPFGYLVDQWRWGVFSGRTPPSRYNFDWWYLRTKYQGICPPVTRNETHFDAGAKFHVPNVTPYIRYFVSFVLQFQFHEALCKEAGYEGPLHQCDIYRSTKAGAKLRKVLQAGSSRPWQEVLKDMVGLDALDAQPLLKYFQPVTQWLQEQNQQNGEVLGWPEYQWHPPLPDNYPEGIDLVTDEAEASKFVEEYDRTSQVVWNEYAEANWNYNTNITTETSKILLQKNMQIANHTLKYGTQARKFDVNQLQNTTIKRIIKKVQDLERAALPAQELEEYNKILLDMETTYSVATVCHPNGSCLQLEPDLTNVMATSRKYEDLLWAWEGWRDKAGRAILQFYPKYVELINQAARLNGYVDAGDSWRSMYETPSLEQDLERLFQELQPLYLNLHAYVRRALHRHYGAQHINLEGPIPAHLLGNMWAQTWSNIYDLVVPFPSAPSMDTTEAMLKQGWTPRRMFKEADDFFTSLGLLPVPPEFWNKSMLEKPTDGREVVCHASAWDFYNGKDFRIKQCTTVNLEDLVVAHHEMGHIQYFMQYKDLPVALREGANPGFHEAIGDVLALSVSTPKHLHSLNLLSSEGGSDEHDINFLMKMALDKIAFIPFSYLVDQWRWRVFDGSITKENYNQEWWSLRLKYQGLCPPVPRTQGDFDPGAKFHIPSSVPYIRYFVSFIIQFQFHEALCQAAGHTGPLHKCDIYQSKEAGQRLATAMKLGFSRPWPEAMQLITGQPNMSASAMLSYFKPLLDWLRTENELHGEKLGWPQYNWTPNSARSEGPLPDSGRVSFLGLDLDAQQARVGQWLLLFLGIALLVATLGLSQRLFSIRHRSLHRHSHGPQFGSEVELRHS
Method: The ACE inhibition assay was carried out with the ACE inhibitory assay kit (ACE kit‐WST). Absorbance at 450 nm was measured using a plate reader (SpectraMax plus, Molecular devices), and the IC50 value reported for each sample was the mean value from three independent replicate assays.

DPP-IV [1] = target: T2, DPP-IV (Homo sapiens, UniProt P27487); assay: DPP-IV inhibition assay (DPP-IV inhibitor screening assay kit, Gly-Pro-Aminomethylcoumarin substrate); format: biochemical; details: chemically synthesized peptides; mean ± SD of three replicates
T2 construct: purchased Abnova KA1311
T2 sequence (P27487 whole entry): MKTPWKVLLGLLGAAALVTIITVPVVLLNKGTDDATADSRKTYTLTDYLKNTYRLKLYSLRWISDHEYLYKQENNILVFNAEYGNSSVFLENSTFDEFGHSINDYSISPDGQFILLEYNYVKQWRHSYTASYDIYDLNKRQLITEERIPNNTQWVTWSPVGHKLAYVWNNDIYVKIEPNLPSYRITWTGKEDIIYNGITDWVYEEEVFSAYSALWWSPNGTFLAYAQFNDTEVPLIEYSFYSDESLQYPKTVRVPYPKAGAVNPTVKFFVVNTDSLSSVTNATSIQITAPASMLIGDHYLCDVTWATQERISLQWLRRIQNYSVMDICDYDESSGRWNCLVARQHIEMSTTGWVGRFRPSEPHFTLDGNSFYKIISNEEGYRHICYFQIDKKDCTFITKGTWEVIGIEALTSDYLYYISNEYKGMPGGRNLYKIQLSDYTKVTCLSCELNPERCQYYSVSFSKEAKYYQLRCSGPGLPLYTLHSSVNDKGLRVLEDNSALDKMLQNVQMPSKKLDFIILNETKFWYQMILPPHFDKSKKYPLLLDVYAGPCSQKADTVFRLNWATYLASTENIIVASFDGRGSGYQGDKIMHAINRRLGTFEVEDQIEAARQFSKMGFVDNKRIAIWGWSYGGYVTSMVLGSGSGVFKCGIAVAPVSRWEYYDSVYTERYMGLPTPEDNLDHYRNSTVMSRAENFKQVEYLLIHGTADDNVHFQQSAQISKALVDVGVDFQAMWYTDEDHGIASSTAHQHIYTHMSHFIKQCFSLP
Method: The DPP‐IV inhibition assay was determined using DPP‐IV inhibitor screening assay kit (KA1311, Abnova). Briefly, peptide samples (10 μl), dispersed in assay buffer (20 mM Tris‐HCl containing 100 mM NaCl and 1 mM EDTA, pH 8.0) at various concentrations, were mixed with assay buffer and DPP‐IV in a 96‐well plate. Then, substrate solution (Gly‐Pro‐Aminomethylcoumarin) was added to initiate the reactions. The mixture was incubated at 37°C for 30 min, and the fluorescence was measured using a plate reader (Synergy MX, Bio Tek) at an excitation wavelength of 350 nm and an emission wavelength of 450 nm. The concentration of the DPP‐IV inhibitor required to inhibit 50% of DPP‐IV activity under the above assay conditions was defined as the IC50, which was the mean value from three independent replicate assays.

DPP-IV [2] = target: T2, DPP-IV; parameters: method as in Vilcacundo et al., 2017; details: peptide released from quinoa protein by pepsin-pancreatin digestion; ref Vilcacundo et al., 2017; read-out: IC50 DPP-IV inhibitory activity; cited from earlier work

| Molecule | pIC50 (ACE) | pIC50 (DPP-IV [1]) | pIC50 (DPP-IV [2]) |
| --- | --- | --- | --- |
| CSCC[C@H](N)C(=O)N[C@@H](CS)C(=O)NCC(=O)O [MCG] (H-Met-Cys-Gly-OH) | 4.68 | 3.83 | – |
| CSCC[C@H](NC(=O)[C@@H](N)CC(N)=O)C(=O)N[C@@H](Cc1ccccc1)C(=O)O [NMF] (H-Asn-Met-Phe-OH) | 3.82 | 3.90 | – |
| IQAEGGLT | – | – | 3.57 |
| N[C@@H](Cc1cnc[nH]1)C(=O)N1CCC[C@H]1C(=O)N[C@@H](Cc1ccccc1)C(=O)O [HPF] (H-His-Pro-Phe-OH) | 4.00 | 4.47 | – |
| CSCC[C@H](N)C(=O)N[C@@H](C)C(=O)N[C@@H](Cc1ccccc1)C(=O)O [MAF] (H-Met-Ala-Phe-OH) | 3.82 | 3.47 | – |
